Where a SMILES comes first, the peptide text is derived from it.
How the values were obtained:
[1] = test system: P. aeruginosa PAO1; test: microbe, parasite or virus in culture; assay type: cell-based, Pseudomonas aeruginosa; details: P. aeruginosa PAO1 (S)
Method in brief: (§1)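 Peptides 128→2 μg/mL, 2-fold series; inoculum ~5 × 10^5 CFU/mL from overnight culture (OD600 0.01, mixed 1:1). MHB non-cation-adjusted for bacteria, RPMI 1640 + 2% glucose for fungi. 37 °C, 20 h, OD600. MIC50/MIC90 at 50%/90% inhibition; n ≥ 3.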

[2] = test system: C. tropicalis NCPF 8760; test: microbe, parasite or virus in culture; assay type: cell-based
Method in brief: as §1

[3] = RP-HPLC ElutionTime as indicator of hydrophobicity; assay type: physicochemical; details: indicator of overall hydrophobicity; semipreparative RP-HPLC, Waters SymmetryPrep C8, water/ACN gradient with 0.1% TFA, 8 mL/min, 25 °C, 254 nm
Procedure: Crude peptides, made up to 10 mg/mL in 0.1% TFA (v/v) in ddH2O, were subjected to preparative RP-HPLC purification on an Agilent 1100 system, with elution in gradient. A gradient program at a flow rate of 8 mL/min and column temperature of 25 °C was used to achieve elution with solvent A (0.1% trifluoroacetic acid (TFA) in water (v/v)) and solvent B (0.1% TFA in 100% acetonitrile (ACN) (v/v)). The elution program was as follows: (1) At 0–73 min, 100% solvent A to 0% solvent B; (2) at 73–77 min, 40% solvent A to 60% solvent B; (3) at 77–93 min, 10% solvent A to 90% solvent B; (4) at 93–105 min, 100% solvent A to 0% solvent B. Data collected were the retention time of the major fraction for each peptide in minutes as RP-HPLC ElutionTime (ElutionTime). Absorbance was detected at 254 nm, and fractions were collected manually. The fractions collected were spun in a speed-vac to remove ACN and the contents lyophilized. After freeze-drying for 24 h the peptides were dissolved in 10% (v/v) acetic acid before being lyophilized for a second time and then stored at −20 °C.
Molecular descriptors used in the QSAR analysis included: charge, sequence length, overall lipophilicity (L), lipophilicity contributed by the polar or nonpolar residues (LP and LN), summation of the side chain surface areas of the total peptide, polar or nonpolar residues (SCSA, SCSAP, and SCSAN), the molecular weight of the entire peptide, polar or nonpolar residues (Mw, MwP, and MwN), count of small lipophilic residues (CSL) or aromatic residues (CAR), the total number of hydrogen bond donor and acceptor centers (HBtot, HBdon, and HBacc), the total number of rotatable bonds (#RotBonds) and various amphipathicity descriptors (LP/L, LP/LN, L/LN, Q/L, Q/LN, SCSAP/SCSAN, MwP/MwN, Q/CSL, and Q/CAR) (Suppl. Table S1). Experimentally determined characteristics included ElutionTime as an indicator of overall peptide hydrophobicity and the CD structure of each peptide determined in POPG/POPE lipids representing Gram-negative membranes, POPG lipids for Gram-positive membranes, and SDS micelles for fungal membranes. AMPs with an α-helical structure were labeled 4, β-sheets were labeled 3, β-turns and mixed conformations were labeled 2, and disordered structures were labeled 1.

[4] = test system: HaCat cell line; test: In vitro HaCat cytotoxicity (MTT); assay type: cell-based, human; details: 21 h exposure, OD570, relative to untreated control
Method in brief: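 HaCat keratinocytes were first screened with peptide at 256 μg/mL for 21 h at 37 °C, and a dose-response was run only when cytotoxicity reached p < 0.0001. Viability was read by MTT (3 h, OD570) relative to untreated control, and LC50 was taken from the dose-response curves.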

[5] = MHB, 37 °C, 20 h, OD600, min. three biological repeats
[6] = C. tropicalis NCPF 8760, 50% growth inhibition, RPMI 1640 + 2% glucose, 37 °C, 20 h
[7] = C. tropicalis NCPF 8760, 90% growth inhibition, RPMI 1640 + 2% glucose, 37 °C, 20 h
[8] = C. tropicalis NCPF 8760, shown in µM

| Compound | Modal MIC [1, 5] [µg/mL] | Modal MIC ([1]; shown in µM) [µM] | Modal MIC50 [2, 6] [µg/mL] | Modal MIC90 [2, 7] [µg/mL] | Modal MIC50 [2, 8] [µM] | Modal MIC90 [2, 8] [µM] | ElutionTime (RP-HPLC retention time of major fraction) [3] | Modal MIC50 ([2]; NCPF 8760, 20 h) [µM] | Modal MIC90 ([2]; NCPF 8760, 20 h) [µM] | % HaCat cell death at initial screening (256μg/mL) ± SD [4] [%] |
| --- | --- | --- | --- | --- | --- | --- | --- | --- | --- | --- |
| CC[C@H](C)[C@H](NC(=O)[C@@H](N)Cc1c[nH]c2ccccc12)C(=O)N[C@@H](CCCCN)C(=O)N[C@@H](CO)C(=O)N[C@H](C(=O)N[C@@H](C)C(=O)N[C@@H](CCCCN)C(=O)N[C@@H](CCCCN)C(N)=O)[C@@H](C)O [Opis8a] (H-WIKSTAKK-NH2) | > 128 | > 133.2 | > 128 | > 128 | > 133.2 | > 133.2 |  |  |  |  |
| CC(C)[C@H](NC(=O)CNC(=O)[C@H](CCCNC(=N)N)NC(=O)[C@H](CCCNC(=N)N)NC(=O)[C@H](CS)NC(=O)[C@@H](NC(=O)[C@H](CS)NC(=O)[C@@H](N)CCCNC(=N)N)C(C)C)C(=O)N[C@@H](CS)C(=O)N[C@@H](CCCNC(=N)N)C(=O)N[C@@H](CS)C(=O)N[C@H](C(=O)N[C@@H](CS)C(=O)N[C@@H](CCCNC(=N)N)C(=O)N[C@@H](CCCNC(=N)N)C(N)=O)C(C)C [BTD15a] (H-RCVCRRGVCRCVCRR-NH2; N-terminus assumed) |  |  | 8 | 8 |  |  | 20 min | 4.4 | 4.4 | 20 |
| CC[C@H](C)[C@H](NC(=O)CNC(=O)[C@@H](N)CCCCN)C(=O)N[C@@H](CCCNC(=N)N)C(=O)NCC(=O)N[C@@H](Cc1ccc(O)cc1)C(=O)N[C@@H](CCCCN)C(=O)NCC(=O)NCC(=O)N[C@@H](Cc1ccc(O)cc1)C(=O)N[C@@H](CS)C(=O)N[C@@H](CCCCN)C(=O)NCC(=O)N[C@@H](C)C(=O)N[C@@H](Cc1ccccc1)C(=O)N[C@@H](CCCCN)C(=O)N[C@@H](CCC(N)=O)C(=O)N[C@H](C(=O)N[C@@H](CS)C(=O)N[C@@H](CCCCN)C(=O)N[C@@H](CS)C(=O)N[C@@H](Cc1ccc(O)cc1)C(N)=O)[C@@H](C)O [Osa] (H-KGIRGYKGGYCKGAFKQTCKCY-NH2; N-terminus assumed) | > 128 | > 51.7 | > 128 | > 128 | > 51.7 | > 51.7 | 24,5 min |  |  |  |
| KCLTLRSLKKTLKFCASGRT-NH2 [X1-20a, novel amidated frog AMP derivative, Xenopus laevis] | > 128 | > 55 | 16 | 32 | 6.9 | 13.8 | 31,7 min |  |  |  |
| CC(C)C[C@H](NC(=O)[C@H](CCCCN)NC(=O)[C@H](CO)NC(=O)[C@H](CCCCN)NC(=O)[C@H](Cc1c[nH]c2ccccc12)NC(=O)[C@H](C)NC(=O)[C@H](CCCCN)NC(=O)[C@@H](N)CCCCN)C(=O)N[C@@H](C)C(=O)N[C@@H](CCCCN)C(=O)N[C@@H](CCCCN)C(=O)N[C@@H](CC(C)C)C(=O)N[C@@H](CCCNC(=N)N)C(=O)N[C@@H](C)C(=O)N[C@@H](CCCCN)C(=O)NCC(=O)N[C@@H](CCCCN)C(N)=O [PS-PB-14a] (H-KKAWKSKLAKKLRAKGK-NH2) | > 128 | > 63.8 |  |  | 31.9 | 31.9 |  |  |  |  |
| CC[C@H](C)[C@H](NC(=O)CNC(=O)[C@@H](N)CCCNC(=N)N)C(=O)N[C@@H](CCCNC(=N)N)C(=O)NCC(=O)N[C@@H](Cc1ccc(O)cc1)C(=O)N[C@@H](CCCCN)C(=O)NCC(=O)NCC(=O)N[C@@H](Cc1ccc(O)cc1)C(=O)N[C@@H](CS)C(=O)N[C@H](C(=O)NCC(=O)N[C@@H](CCCNC(=N)N)C(=O)N[C@@H](Cc1ccccc1)C(=O)N[C@@H](CCCCN)C(=O)N[C@@H](CCC(N)=O)C(=O)N[C@H](C(=O)N[C@@H](CS)C(=O)N[C@@H](CCCCN)C(=O)N[C@@H](CS)C(=O)N[C@@H](Cc1ccc(O)cc1)C(=O)O)[C@@H](C)O)[C@@H](C)O [OmDefB] (H-RGIRGYKGGYCTGRFKQTCKCY-OH; N-terminus and C-terminus assumed) | > 128 | > 49.9 | > 128 | > 128 | > 49.9 | > 49.9 | 25 min |  |  |  |
| CC(C)C[C@H](NC(=O)[C@H](CCCCN)NC(=O)[C@H](CO)NC(=O)[C@H](CCCCN)NC(=O)[C@@H](N)Cc1c[nH]c2ccccc12)C(=O)N[C@@H](C)C(=O)N[C@@H](CCCCN)C(=O)N[C@@H](CCCCN)C(N)=O [PS-PB-8a] (H-WKSKLAKK-NH2) | > 128 | > 127.2 | > 128 | > 128 | > 127.2 | > 127.2 |  |  |  |  |
| CC[C@H](C)[C@H](N)C(=O)N[C@@H](CCCNC(=N)N)C(=O)NCC(=O)N[C@@H](Cc1ccc(O)cc1)C(=O)N[C@@H](CCCCN)C(=O)NCC(=O)NCC(=O)N[C@@H](Cc1ccc(O)cc1)C(=O)N[C@@H](CS)C(=O)N[C@@H](CCCCN)C(N)=O [Os(3-12)a] (H-IRGYKGGYCK-NH2) | > 128 | > 112 | > 128 | > 128 | > 112 | > 112 |  |  |  |  |
| CC[C@H](C)[C@H](NC(=O)[C@H](CCCCN)NC(=O)[C@H](CC(C)C)NC(=O)[C@H](C)NC(=O)[C@H](C)NC(=O)[C@H](CCCCN)NC(=O)[C@H](CC(C)C)NC(=O)[C@H](C)NC(=O)[C@@H](N)CCCCN)C(=O)NCC(N)=O [CPF-P3-10a] (H-KALKAALKIG-NH2) | > 128 | > 122 | > 128 | > 128 | > 122 | > 122 |  |  |  |  |
| CC[C@H](C)[C@H](NC(=O)CNC(=O)[C@@H](N)CCCCN)C(=O)N[C@@H](CCCNC(=N)N)C(=O)NCC(=O)N[C@@H](Cc1ccc(O)cc1)C(=O)N[C@@H](CCCCN)C(=O)NCC(=O)NCC(=O)N[C@@H](Cc1ccc(O)cc1)C(=O)N[C@@H](CS)C(=O)N[C@@H](CCCCN)C(=O)NCC(=O)N[C@@H](C)C(=O)N[C@@H](Cc1ccccc1)C(=O)N[C@@H](CCCCN)C(=O)N[C@@H](CCC(N)=O)C(=O)N[C@H](C(=O)N[C@@H](CS)C(=O)N[C@@H](CCCCN)C(=O)N[C@@H](CS)C(=O)N[C@@H](Cc1ccc(O)cc1)C(=O)O)[C@@H](C)O [Os] (H-KGIRGYKGGYCKGAFKQTCKCY-OH; N-terminus and C-terminus assumed) | > 128 | > 51.7 | > 128 | > 128 | > 51.7 | > 51.7 | 24,7 min |  |  |  |
| CC[C@H](C)[C@H](NC(=O)[C@H](CCCCN)NC(=O)[C@H](CC(C)C)NC(=O)[C@H](C)NC(=O)[C@H](C)NC(=O)[C@H](CCCCN)NC(=O)[C@H](CC(C)C)NC(=O)[C@H](C)NC(=O)[C@@H](N)CCCCN)C(=O)NCC(=O)N[C@@H](C)C(=O)N[C@@H](CC(N)=O)C(N)=O [CPF-P3-12a] (H-KALKAALKIGAN-NH2) | > 128 | > 103.8 | > 128 | > 128 | > 103.8 | > 103.8 |  |  |  |  |

Source: paper PMC11191095, “QSAR Reveals Decreased Lipophilicity of Polar Residues Determines the Selectivity of Antimicrobial Peptide Activity” (ACS Omega, 2024)
